We go through nine cell lines from the supplement of paper PMC10307832.

Experiment in all cases: relative viability (nuclei count vs DMSO), 5 days (fraction); higher = more cells survive
Compound in experiment [1]: CC1=NC=CC(=C1)C2=CC=C(C=C2)CC(=O)NC3=CC=C(C=C3)C4=CN=CC=C4 [Wnt-C59] + COc1cccc2cc(-c3nc([C@H]4CC[C@H](C(=O)O)CC4)n4ncnc(N)c34)[nH]c12 [OSI-027] (partner 0.5 µM)
In a few lines:
(§1)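 Lung cancer cell lines were seeded in 1536-well plates and dosed by pin tool the next day, with either a single drug or a fixed anchor-drug dose combined with five library-drug doses (not always all listed) spaced in √10 steps. Five days later, one step fixed the cells and stained their nuclei (final 0.05% Triton X-100, 1% formaldehyde, 1 ug/ml Hoechst), and nuclei were counted on 4× images. Relative viability is the nuclei count in treated wells divided by the count in vehicle wells, and each value is the median of duplicate plates.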

Compound in experiment [2]: CC1=NC=CC(=C1)C2=CC=C(C=C2)CC(=O)NC3=CC=C(C=C3)C4=CN=CC=C4 [Wnt-C59] + CS(=O)(=O)N1CCN(Cc2cc3nc(-c4cccc5[nH]ncc45)nc(N4CCOCC4)c3s2)CC1 [Pictilisib] (partner 1 µM)
Put shortly:
as §1

Compound in experiment [3]: CS(=O)(=O)CCNCc1ccc(-c2ccc3ncnc(Nc4ccc(OCc5cccc(F)c5)c(Cl)c4)c3c2)o1 [Lapatinib] + CS(=O)(=O)N1CCN(Cc2cc3nc(-c4cccc5[nH]ncc45)nc(N4CCOCC4)c3s2)CC1 [Pictilisib] (partner 1 µM)
Put shortly: as §1

Compound in experiment [4]: CS(=O)(=O)CCNCc1ccc(-c2ccc3ncnc(Nc4ccc(OCc5cccc(F)c5)c(Cl)c4)c3c2)o1 [Lapatinib] + C[C@]1(O)C[C@@H](c2nc(-c3ccc4ccc(-c5ccccc5)nc4c3)c3c(N)nccn32)C1 [Linsitinib] (partner 1 µM)
Put shortly:
as §1

As to NCI-H1944, the relative viability in experiment [1] (first compound 0.001 µM) was 0.407; in experiment [1] (first compound 0.01 µM) it was 0.358; in experiment [1] (first compound 0.03162 µM) it was 0.415; in experiment [1] (first compound 0.1 µM) it was 0.462; in experiment [2] (first compound 0.001 µM) it was 0.372; in experiment [2] (first compound 0.01 µM), 0.312. In addition, the relative viability in experiment [2] (first compound 0.03162 µM) amounted to 0.322; in experiment [2] (first compound 0.1 µM), 0.336; in experiment [3] (first compound 0.2 µM) it was 0.348; in experiment [3] (first compound 0.6325 µM), 0.343; in experiment [3] (first compound 2 µM), 0.318; in experiment [4] (first compound 0.2 µM) it was 0.959. For the same cell line, the relative viability came to 0.767 in experiment [4] (first compound 0.6325 µM) and 0.656 in experiment [4] (first compound 2 µM).

Turning to NCI-H838, the relative viability in experiment [1] (first compound 0.001 µM) came out at 0.435; in experiment [1] (first compound 0.01 µM) it was 0.385; in experiment [1] (first compound 0.03162 µM) it was 0.331; in experiment [1] (first compound 0.1 µM) it was 0.411; in experiment [2] (first compound 0.001 µM) it was 0.463; in experiment [2] (first compound 0.01 µM), 0.516. Also, the relative viability amounted to 0.439 in experiment [2] (first compound 0.03162 µM); 0.42 in experiment [2] (first compound 0.1 µM); 0.48 in experiment [3] (first compound 0.02 µM); 0.409 in experiment [3] (first compound 0.06325 µM); 0.505 in experiment [3] (first compound 0.2 µM); 0.449 in experiment [3] (first compound 0.6325 µM). Further, the relative viability in experiment [3] (first compound 2 µM) amounted to 0.458; in experiment [4] (first compound 0.02 µM), 1.08; in experiment [4] (first compound 0.06325 µM), 0.913; in experiment [4] (first compound 0.2 µM), 1.03; in experiment [4] (first compound 0.6325 µM), 1.04; in experiment [4] (first compound 2 µM), 0.874.

As to NCI-H2126, the relative viability turned out to be 0.718 in experiment [1] (first compound 0.001 µM); 0.655 in experiment [1] (first compound 0.01 µM); 0.7 in experiment [1] (first compound 0.03162 µM); 0.682 in experiment [1] (first compound 0.1 µM); 0.451 in experiment [2] (first compound 0.001 µM); 0.446 in experiment [2] (first compound 0.01 µM). Further, the relative viability in experiment [2] (first compound 0.03162 µM) was determined as 0.489; in experiment [2] (first compound 0.1 µM), 0.479; in experiment [3] (first compound 0.06325 µM), 0.402; in experiment [3] (first compound 0.2 µM), 0.474; in experiment [3] (first compound 0.6325 µM), 0.49; in experiment [3] (first compound 2 µM), 0.431. In addition, the relative viability in experiment [4] (first compound 0.06325 µM) turned out to be 0.658; in experiment [4] (first compound 0.2 µM), 0.685; in experiment [4] (first compound 0.6325 µM) it was 0.645; in experiment [4] (first compound 2 µM), 0.593.

With NCI-H1975, the relative viability in experiment [1] (first compound 0.001 µM) was 0.685; in experiment [1] (first compound 0.01 µM), 0.555; in experiment [1] (first compound 0.03162 µM), 0.855; in experiment [1] (first compound 0.1 µM), 0.713; in experiment [2] (first compound 0.001 µM) it was 0.282; in experiment [2] (first compound 0.01 µM) it was 0.294. Moreover, the relative viability in experiment [2] (first compound 0.03162 µM) turned out to be 0.326; in experiment [2] (first compound 0.1 µM), 0.282; in experiment [3] (first compound 0.02 µM), 0.281; in experiment [3] (first compound 0.06325 µM), 0.24; in experiment [3] (first compound 0.2 µM), 0.309; in experiment [3] (first compound 0.6325 µM), 0.329. The relative viability turned out to be 0.192 in experiment [3] (first compound 2 µM); 0.843 in experiment [4] (first compound 0.02 µM); 0.927 in experiment [4] (first compound 0.06325 µM); 0.954 in experiment [4] (first compound 0.2 µM); 0.853 in experiment [4] (first compound 0.6325 µM); 0.694 in experiment [4] (first compound 2 µM).

Regarding NCI-H727, the relative viability in experiment [1] (first compound 0.001 µM) was 0.759; in experiment [1] (first compound 0.01 µM), 0.581; in experiment [1] (first compound 0.03162 µM) it was 0.641; in experiment [1] (first compound 0.1 µM) it was 0.541; in experiment [2] (first compound 0.001 µM) it was 0.381; in experiment [2] (first compound 0.01 µM), 0.342. Moreover, the relative viability in experiment [2] (first compound 0.03162 µM) was found to be 0.43; in experiment [2] (first compound 0.1 µM) it was 0.309; in experiment [3] (first compound 0.02 µM), 0.339; in experiment [3] (first compound 0.06325 µM), 0.246; in experiment [3] (first compound 0.2 µM) it was 0.434; in experiment [3] (first compound 0.6325 µM), 0.357. In addition, the relative viability was 0.343 in experiment [3] (first compound 2 µM); 0.259 in experiment [4] (first compound 0.02 µM); 0.207 in experiment [4] (first compound 0.06325 µM); 0.278 in experiment [4] (first compound 0.2 µM); 0.256 in experiment [4] (first compound 0.6325 µM); 0.236 in experiment [4] (first compound 2 µM).

On to NCI-H650, for which the relative viability was found to be 0.581 in experiment [1] (first compound 0.001 µM); 0.661 in experiment [1] (first compound 0.01 µM); 0.485 in experiment [1] (first compound 0.03162 µM); 0.532 in experiment [1] (first compound 0.1 µM); 0.838 in experiment [2] (first compound 0.001 µM); 0.94 in experiment [2] (first compound 0.01 µM). In addition, the relative viability in experiment [2] (first compound 0.03162 µM) was determined as 0.982; in experiment [2] (first compound 0.1 µM), 0.685; in experiment [3] (first compound 0.06325 µM), 0.918; in experiment [3] (first compound 0.2 µM) it was 0.888; in experiment [3] (first compound 0.6325 µM), 0.782; in experiment [3] (first compound 2 µM), 1.04. In addition, the relative viability in experiment [4] (first compound 0.06325 µM) stood at 0.841; in experiment [4] (first compound 0.2 µM), 0.793; in experiment [4] (first compound 0.6325 µM) it was 0.567; in experiment [4] (first compound 2 µM), 0.875.

In the case of A-427, the relative viability came to 0.479 in experiment [1] (first compound 0.001 µM); 0.457 in experiment [1] (first compound 0.01 µM); 0.478 in experiment [1] (first compound 0.03162 µM); 0.503 in experiment [1] (first compound 0.1 µM); 0.756 in experiment [2] (first compound 0.001 µM); 0.554 in experiment [2] (first compound 0.01 µM). Further, the relative viability in experiment [2] (first compound 0.03162 µM) amounted to 0.717; in experiment [2] (first compound 0.1 µM), 0.799; in experiment [3] (first compound 0.06325 µM), 0.602; in experiment [3] (first compound 0.2 µM), 0.854; in experiment [3] (first compound 0.6325 µM), 0.765; in experiment [3] (first compound 2 µM), 0.665. In addition, the relative viability in experiment [4] (first compound 0.06325 µM) was determined as 1.05; in experiment [4] (first compound 0.2 µM) it was 1.11; in experiment [4] (first compound 0.6325 µM), 1.17; in experiment [4] (first compound 2 µM) it was 1.14.

NCI-H1993: the relative viability was 0.582 in experiment [1] (first compound 0.001 µM); 0.57 in experiment [1] (first compound 0.03162 µM); 0.544 in experiment [1] (first compound 0.1 µM); 0.979 in experiment [2] (first compound 0.001 µM); 0.833 in experiment [2] (first compound 0.01 µM); 0.902 in experiment [2] (first compound 0.03162 µM). For the same cell line, the relative viability stood at 0.84 in experiment [2] (first compound 0.1 µM); 0.715 in experiment [3] (first compound 0.02 µM); 0.808 in experiment [3] (first compound 0.2 µM); 0.812 in experiment [3] (first compound 0.6325 µM); 0.977 in experiment [3] (first compound 2 µM); 0.743 in experiment [4] (first compound 0.02 µM). In addition, the figures for the relative viability in experiment [4] (first compound 0.2 µM), in experiment [4] (first compound 0.6325 µM) and in experiment [4] (first compound 2 µM) were 0.816, 0.752 and 0.639, respectively.

CAL-12T: the relative viability in experiment [1] (first compound 0.001 µM) turned out to be 0.871; in experiment [1] (first compound 0.01 µM), 0.611; in experiment [1] (first compound 0.03162 µM), 0.856; in experiment [1] (first compound 0.1 µM), 0.654; in experiment [2] (first compound 0.001 µM), 0.259; in experiment [2] (first compound 0.03162 µM), 0.436. Further, the relative viability was determined as 0.511 in experiment [2] (first compound 0.1 µM); 0.415 in experiment [3] (first compound 0.06325 µM); 0.31 in experiment [3] (first compound 0.2 µM); 0.528 in experiment [3] (first compound 0.6325 µM); 0.351 in experiment [3] (first compound 2 µM); 0.761 in experiment [4] (first compound 0.02 µM). Besides, the relative viability is 0.83 in experiment [4] (first compound 0.06325 µM), 0.634 in experiment [4] (first compound 0.2 µM), 0.725 in experiment [4] (first compound 0.6325 µM) and 0.579 in experiment [4] (first compound 2 µM).
